Earlier results as cited in patent publication US20230104323A1, “FORMULATIONS OF POLYBASIC DRUGS TO REDUCE MULTI-ORGAN TOXICITY” (priority 2019, published 2023).

System: healthy subjects
Conditions: plazomicin injection

In the case of `CN[C@@H]1[C@@H](O)[C@@H](O[C@@H]2[C@@H](O)[C@H](O[C@H]3OC(CNCCO)=CC[C@H]3N)[C@@H](N)C[C@H]2NC(=O)[C@@H](O)CCN)OC[C@]1(C)O` [plazomicin], the “Nephrotoxicity and ototoxicity in humans” value is listed as “no nephrotoxicity and ototoxicity”.
